According to ChEMBL document CHEMBL4507268 (2021):

Key:
[1] = target: LIM domain kinase 2 (Homo sapiens) (UniProt P53671); conditions: Compound concentration 1000.0 nM
[2] = target: Insulin-like growth factor 1 receptor (Homo sapiens) (UniProt P08069); conditions: Compound concentration 1000.0 nM
[3] = target: T1, Mitogen-activated protein kinase kinase kinase 5 (Homo sapiens) (UniProt Q99683); conditions: Compound concentration 1000.0 nM
T1 sequence (whole entry): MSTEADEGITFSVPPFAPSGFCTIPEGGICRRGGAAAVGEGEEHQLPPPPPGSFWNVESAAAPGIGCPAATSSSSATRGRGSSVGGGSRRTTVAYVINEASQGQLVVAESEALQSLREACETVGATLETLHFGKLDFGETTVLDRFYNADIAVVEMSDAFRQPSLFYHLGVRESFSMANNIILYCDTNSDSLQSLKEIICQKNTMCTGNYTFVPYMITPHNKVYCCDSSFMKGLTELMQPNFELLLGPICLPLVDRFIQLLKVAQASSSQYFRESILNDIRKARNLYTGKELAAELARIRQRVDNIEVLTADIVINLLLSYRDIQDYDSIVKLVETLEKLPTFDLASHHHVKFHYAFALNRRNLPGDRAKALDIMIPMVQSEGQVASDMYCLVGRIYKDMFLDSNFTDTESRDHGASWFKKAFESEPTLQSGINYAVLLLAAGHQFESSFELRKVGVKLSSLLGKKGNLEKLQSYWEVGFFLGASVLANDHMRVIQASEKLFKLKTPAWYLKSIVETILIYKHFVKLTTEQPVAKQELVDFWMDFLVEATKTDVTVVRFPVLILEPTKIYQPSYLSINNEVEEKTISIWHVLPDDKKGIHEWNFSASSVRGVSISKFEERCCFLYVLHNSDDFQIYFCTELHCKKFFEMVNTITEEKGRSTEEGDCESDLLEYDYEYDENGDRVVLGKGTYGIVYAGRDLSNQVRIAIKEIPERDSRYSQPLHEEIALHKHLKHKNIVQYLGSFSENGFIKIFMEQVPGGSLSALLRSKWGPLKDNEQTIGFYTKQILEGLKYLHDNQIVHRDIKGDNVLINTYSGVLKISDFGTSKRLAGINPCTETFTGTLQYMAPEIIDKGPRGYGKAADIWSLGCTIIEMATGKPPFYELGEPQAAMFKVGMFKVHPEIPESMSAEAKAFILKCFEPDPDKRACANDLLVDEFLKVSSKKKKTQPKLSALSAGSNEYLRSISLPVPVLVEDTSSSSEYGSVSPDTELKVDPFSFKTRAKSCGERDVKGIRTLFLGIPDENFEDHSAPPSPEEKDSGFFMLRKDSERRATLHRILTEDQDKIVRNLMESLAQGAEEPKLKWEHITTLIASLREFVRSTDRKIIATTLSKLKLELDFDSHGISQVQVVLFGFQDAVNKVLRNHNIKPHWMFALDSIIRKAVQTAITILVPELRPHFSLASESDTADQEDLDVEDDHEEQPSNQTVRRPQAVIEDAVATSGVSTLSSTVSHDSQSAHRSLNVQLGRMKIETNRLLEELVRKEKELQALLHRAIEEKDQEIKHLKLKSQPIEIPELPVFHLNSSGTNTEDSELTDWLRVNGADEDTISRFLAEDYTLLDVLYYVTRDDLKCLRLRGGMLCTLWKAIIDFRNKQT

[4] = target: T2, Serine/threonine-protein kinase BRSK1 (Homo sapiens) (UniProt Q8TDC3); conditions: Compound concentration 1000.0 nM
T2 sequence (whole entry): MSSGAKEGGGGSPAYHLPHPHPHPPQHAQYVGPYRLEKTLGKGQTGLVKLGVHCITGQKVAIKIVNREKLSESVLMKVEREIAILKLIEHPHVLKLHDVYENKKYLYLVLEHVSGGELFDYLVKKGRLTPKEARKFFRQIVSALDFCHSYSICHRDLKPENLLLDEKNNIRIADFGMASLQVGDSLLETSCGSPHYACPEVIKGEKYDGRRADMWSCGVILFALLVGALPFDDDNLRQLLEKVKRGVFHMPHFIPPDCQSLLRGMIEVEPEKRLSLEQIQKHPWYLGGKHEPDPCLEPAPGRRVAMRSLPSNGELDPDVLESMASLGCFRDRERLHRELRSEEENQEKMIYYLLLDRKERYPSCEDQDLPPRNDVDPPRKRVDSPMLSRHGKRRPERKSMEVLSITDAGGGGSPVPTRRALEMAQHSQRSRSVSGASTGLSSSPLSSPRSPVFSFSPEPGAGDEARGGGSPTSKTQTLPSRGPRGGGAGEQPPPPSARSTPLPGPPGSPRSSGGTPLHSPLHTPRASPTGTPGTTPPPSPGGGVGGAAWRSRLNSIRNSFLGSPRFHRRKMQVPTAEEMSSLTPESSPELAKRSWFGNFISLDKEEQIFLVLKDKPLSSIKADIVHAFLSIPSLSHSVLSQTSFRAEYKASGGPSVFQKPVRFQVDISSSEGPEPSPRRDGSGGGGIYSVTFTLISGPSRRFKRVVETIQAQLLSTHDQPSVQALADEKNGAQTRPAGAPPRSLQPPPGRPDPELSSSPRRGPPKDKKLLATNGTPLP

[5] = target: 5'-AMP-activated protein kinase catalytic subunit alpha-1 (Homo sapiens) (UniProt Q13131); conditions: Compound concentration 1000.0 nM
[6] = target: Histamine H2 receptor (Homo sapiens) (UniProt P25021); conditions: Compound concentration 10.0 uM
[7] = target: Cyclin-dependent kinase 2 homolog (Plasmodium falciparum (isolate 3D7)) (UniProt P61075); conditions: Compound concentration 1000.0 nM
[8] = target: Ephrin type-A receptor 4 (Homo sapiens) (UniProt P54764); conditions: Compound concentration 1000.0 nM
[9] = tested on: Epidermal growth factor receptor (Homo sapiens), P00533 [UNDEFINED MUTATION]; conditions: Compound concentration 1000.0 nM
[10] = target: Wee1-like protein kinase (Homo sapiens) (UniProt P30291); conditions: Compound concentration 1000.0 nM
[11] = target: Serine/threonine-protein kinase WNK1 (Homo sapiens) (UniProt Q9H4A3); conditions: Compound concentration 1000.0 nM
[12] = target: Mitogen-activated protein kinase 1 (Homo sapiens) (UniProt P28482); conditions: Compound concentration 1000.0 nM
Sequence of Mitogen-activated protein kinase 1 (Homo sapiens) (P28482 whole entry): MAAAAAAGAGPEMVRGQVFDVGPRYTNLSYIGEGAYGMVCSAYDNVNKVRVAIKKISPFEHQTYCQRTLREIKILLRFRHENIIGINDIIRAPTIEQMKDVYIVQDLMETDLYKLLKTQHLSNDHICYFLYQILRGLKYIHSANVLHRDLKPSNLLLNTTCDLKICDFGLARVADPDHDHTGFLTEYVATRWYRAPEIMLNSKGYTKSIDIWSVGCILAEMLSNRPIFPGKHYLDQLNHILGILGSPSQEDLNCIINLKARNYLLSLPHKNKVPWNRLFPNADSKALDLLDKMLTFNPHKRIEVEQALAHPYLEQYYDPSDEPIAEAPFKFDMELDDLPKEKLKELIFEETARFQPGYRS

Sequence of Epidermal growth factor receptor (Homo sapiens), P00533 [UNDEFINED MUTATION] (P00533 whole entry, looked up, change not shown): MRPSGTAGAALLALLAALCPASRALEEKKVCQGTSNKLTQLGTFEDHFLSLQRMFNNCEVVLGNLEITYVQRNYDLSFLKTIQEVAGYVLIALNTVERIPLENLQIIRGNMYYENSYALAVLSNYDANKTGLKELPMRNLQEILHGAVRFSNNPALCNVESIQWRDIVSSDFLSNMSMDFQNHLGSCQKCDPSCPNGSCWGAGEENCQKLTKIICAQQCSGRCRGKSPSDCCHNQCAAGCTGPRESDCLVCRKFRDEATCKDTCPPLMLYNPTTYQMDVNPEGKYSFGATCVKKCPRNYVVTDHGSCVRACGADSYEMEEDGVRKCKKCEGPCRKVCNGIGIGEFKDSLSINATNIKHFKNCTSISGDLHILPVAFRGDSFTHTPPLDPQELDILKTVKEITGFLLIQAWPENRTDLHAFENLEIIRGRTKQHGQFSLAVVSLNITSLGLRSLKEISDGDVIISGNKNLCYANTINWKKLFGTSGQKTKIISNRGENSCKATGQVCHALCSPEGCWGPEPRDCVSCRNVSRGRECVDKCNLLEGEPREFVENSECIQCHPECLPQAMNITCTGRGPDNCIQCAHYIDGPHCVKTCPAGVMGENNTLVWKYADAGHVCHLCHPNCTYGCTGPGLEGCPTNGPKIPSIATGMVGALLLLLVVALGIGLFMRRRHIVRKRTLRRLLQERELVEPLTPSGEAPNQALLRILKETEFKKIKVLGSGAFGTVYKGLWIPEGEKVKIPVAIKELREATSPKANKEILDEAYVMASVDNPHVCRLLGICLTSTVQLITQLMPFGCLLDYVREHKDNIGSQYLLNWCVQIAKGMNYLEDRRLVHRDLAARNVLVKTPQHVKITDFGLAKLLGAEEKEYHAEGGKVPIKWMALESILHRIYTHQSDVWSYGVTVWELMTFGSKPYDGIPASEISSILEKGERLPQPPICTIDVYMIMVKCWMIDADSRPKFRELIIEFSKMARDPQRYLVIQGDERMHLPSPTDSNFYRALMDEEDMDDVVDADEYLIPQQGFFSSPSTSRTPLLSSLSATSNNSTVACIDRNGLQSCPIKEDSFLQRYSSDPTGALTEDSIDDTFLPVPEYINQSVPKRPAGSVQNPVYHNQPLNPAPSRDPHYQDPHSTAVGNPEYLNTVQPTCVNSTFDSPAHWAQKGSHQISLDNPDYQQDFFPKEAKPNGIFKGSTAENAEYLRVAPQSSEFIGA
Sequence of Ephrin type-A receptor 4 (Homo sapiens) (P54764 whole entry): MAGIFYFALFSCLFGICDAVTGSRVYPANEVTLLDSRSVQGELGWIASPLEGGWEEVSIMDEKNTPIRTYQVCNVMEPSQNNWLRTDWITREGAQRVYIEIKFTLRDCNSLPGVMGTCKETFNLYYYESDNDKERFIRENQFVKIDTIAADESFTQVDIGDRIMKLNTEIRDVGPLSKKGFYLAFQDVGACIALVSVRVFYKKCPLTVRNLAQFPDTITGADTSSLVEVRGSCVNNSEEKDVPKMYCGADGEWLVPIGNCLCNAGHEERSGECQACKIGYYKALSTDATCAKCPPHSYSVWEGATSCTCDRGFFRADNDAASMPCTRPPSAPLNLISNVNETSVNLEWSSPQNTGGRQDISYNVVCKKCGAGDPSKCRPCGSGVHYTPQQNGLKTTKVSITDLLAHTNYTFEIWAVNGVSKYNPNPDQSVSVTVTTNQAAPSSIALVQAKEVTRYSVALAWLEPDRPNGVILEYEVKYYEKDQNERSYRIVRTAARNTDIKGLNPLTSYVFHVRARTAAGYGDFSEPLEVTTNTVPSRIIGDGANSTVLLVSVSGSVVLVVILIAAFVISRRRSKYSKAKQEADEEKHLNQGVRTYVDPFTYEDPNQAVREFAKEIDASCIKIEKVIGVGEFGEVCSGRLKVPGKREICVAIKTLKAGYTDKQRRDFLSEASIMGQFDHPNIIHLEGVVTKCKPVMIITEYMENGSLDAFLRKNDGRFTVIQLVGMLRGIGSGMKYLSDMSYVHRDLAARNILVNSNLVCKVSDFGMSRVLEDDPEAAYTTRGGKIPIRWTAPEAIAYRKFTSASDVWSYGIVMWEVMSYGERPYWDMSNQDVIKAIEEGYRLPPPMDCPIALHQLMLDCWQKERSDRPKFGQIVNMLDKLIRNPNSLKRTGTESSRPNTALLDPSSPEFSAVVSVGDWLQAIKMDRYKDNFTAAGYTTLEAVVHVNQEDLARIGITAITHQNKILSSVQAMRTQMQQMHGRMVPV
Sequence of Histamine H2 receptor (Homo sapiens) (P25021 whole entry): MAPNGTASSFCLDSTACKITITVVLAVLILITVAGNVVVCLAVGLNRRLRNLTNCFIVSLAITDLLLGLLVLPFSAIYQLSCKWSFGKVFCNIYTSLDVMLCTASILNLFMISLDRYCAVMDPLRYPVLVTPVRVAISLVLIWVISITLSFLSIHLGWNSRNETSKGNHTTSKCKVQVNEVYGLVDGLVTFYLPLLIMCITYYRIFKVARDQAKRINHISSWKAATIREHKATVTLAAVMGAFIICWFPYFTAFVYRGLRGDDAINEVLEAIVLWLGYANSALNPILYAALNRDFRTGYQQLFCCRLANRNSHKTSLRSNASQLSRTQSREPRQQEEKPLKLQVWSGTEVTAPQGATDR
Sequence of LIM domain kinase 2 (Homo sapiens) (P53671 whole entry, looked up, the tested form may be a part): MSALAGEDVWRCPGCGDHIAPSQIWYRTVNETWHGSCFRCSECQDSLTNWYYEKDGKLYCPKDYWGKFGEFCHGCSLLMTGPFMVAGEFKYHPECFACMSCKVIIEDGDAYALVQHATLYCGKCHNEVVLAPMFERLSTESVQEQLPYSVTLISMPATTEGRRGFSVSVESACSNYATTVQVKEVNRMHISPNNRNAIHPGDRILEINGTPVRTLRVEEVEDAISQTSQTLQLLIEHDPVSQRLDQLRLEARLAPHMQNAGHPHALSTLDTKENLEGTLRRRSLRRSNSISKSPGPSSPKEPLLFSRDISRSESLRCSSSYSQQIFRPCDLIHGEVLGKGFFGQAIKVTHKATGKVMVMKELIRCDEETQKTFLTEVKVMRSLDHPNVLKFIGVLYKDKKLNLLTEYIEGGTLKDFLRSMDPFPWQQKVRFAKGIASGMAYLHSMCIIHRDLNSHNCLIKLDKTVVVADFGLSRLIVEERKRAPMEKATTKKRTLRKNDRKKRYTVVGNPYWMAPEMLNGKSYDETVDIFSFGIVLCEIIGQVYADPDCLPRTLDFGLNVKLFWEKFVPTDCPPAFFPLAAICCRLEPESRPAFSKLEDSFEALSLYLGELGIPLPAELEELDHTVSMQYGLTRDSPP
Sequence of 5'-AMP-activated protein kinase catalytic subunit alpha-1 (Homo sapiens) (Q13131 whole entry, looked up): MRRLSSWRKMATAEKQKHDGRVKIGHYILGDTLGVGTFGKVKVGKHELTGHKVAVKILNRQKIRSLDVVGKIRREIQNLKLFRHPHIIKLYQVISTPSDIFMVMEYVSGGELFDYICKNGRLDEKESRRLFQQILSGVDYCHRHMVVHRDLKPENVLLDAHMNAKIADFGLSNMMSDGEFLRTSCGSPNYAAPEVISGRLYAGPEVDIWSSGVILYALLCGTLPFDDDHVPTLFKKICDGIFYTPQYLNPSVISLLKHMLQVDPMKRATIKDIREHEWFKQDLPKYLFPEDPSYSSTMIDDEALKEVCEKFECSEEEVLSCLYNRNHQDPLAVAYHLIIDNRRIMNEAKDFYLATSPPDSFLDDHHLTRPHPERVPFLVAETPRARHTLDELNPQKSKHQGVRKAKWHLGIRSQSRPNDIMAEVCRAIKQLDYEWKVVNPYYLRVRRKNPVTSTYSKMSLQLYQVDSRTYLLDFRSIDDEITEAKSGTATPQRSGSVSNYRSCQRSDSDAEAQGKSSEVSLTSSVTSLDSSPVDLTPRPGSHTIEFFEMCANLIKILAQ
Sequence of Cyclin-dependent kinase 2 homolog (Plasmodium falciparum (isolate 3D7)) (P61075 whole entry): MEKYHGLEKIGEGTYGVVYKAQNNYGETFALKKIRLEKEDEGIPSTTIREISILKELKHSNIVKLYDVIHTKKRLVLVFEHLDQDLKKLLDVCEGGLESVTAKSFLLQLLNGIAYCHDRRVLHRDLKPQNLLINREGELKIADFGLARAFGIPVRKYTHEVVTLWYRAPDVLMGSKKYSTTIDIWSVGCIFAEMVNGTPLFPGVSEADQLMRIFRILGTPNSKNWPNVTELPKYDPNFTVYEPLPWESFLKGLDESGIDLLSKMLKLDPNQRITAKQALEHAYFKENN
Sequence of Wee1-like protein kinase (Homo sapiens) (P30291 whole entry, looked up): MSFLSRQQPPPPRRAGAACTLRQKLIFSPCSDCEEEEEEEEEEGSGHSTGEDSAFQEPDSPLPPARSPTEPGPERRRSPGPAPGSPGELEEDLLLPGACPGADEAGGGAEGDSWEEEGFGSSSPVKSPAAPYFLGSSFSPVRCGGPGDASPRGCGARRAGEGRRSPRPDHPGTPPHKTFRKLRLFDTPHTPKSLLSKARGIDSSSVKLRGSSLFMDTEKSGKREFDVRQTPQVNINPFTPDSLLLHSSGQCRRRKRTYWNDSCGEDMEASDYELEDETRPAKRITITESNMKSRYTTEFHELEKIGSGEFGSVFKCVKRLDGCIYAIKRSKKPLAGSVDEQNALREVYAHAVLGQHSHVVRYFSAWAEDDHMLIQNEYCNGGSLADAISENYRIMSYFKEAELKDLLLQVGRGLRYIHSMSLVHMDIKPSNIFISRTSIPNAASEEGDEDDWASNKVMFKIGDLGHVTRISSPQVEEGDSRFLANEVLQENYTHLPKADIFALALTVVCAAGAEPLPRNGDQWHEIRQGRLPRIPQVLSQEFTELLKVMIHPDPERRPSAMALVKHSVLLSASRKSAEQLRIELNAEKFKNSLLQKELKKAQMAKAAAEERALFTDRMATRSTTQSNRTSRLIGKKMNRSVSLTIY

Cc1nc(C2CCN(C(=O)c3ccc(OC(F)(F)F)cc3N)CC2)c2ncc(N3CCN(C)CC3)cc2n1 [BAY-693]
inactive: residual activity [1] 95% | residual activity [2] 91% | residual activity [3] 99% | residual activity [4] 100% | residual activity [5] 98% | inhibition [6] 23.6% | residual activity [7] 100% | residual activity [8] 100% | residual activity [9] 100% | residual activity [10] 94% | residual activity [11] 94% | residual activity [12] 98%

CN1CCN(c2cnc3c(C4CCN(C(=O)c5ccc(OC(F)(F)F)cc5N)CC4)ncnc3c2)CC1 [BAY-885]
inactive: residual activity [1] 100% | residual activity [2] 100% | residual activity [3] 92% | residual activity [4] 100% | residual activity [5] 87% | inhibition [6] 31.2% | residual activity [7] 100% | residual activity [8] 100% | residual activity [9] 100% | residual activity [10] 96% | residual activity [11] 100% | residual activity [12] 94%
